For test [1], the target named is T1, PCSK9 (Homo sapiens, UniProt Q8NBP7, G670E/V474I). Nature of the test: biochemical.
Test [2] concerns the target T2, potassium ion channel hERG (Homo sapiens, UniProt Q12809).
T2 construct: expressed in transfected cells; host or cells: Chinese hamster ovary K1 (CHO)
In words: Assay 5 hERG assay (patch clamp, CHO cells over-expressing hERG). It is filed as cell-based. The settings on record: SyncroPatch 384PE, room temperature, geometric mean, read-out: Assay 5 (hERG Hu CHO if EPh CR-Syncro) GMean IC50. The protocol: This assay (human Ether-d-go-go-Related Gene) measures activity of the compounds at the potassium ion channel hERG (human Ether-d-go-go-Related Gene).
Experiments were performed on the SyncroPatch 384PE high throughput patch clamp platform at room temperature and medium resistance chips with 4 patch holes per site. Chinese hamster ovary K1 (CHO) cell lines over-expressing the ion channel of choice (hERG) were used in assay-ready format and kept in liquid nitrogen or were used from live culture. Cells were either thawed and diluted in HBSS or were detached from flasks and resuspended in HBSS. HBSS comprised 140 mM NaCl, 4 mM KCl, 10 mM HEPES and 5 mM Glucose (pH7.4). The internal patch clamp solution was KF 120 mM, KCl 20 mM, HEPES 10 mM, EGTA 10 mM, and 25 PM Escin (pH 7.2). After the sealing process was complete, the external solution was exchanged for external patch clamp solution comprising NaCl 80 mM, KCl 4 mM, HEPES 10 mM, CaCl2 2 mM, MgCl2 1 mM, glucose 5 mM, and NMDG 60 mM (pH 7.4). All solutions were stored at room temperature, except Escin, which was stored at 4° C. All test compounds were dispensed in greiner-bio 384 well plates and tested in a 6 point cumulative assay (final DMSO concentration 0.33%). Only wells that passed previously agreed acceptance criteria for this platform were used in this analysis (30 MegaOhm seal resistance, Z prime >0.4 and current size >0.2 nA). […]

Test [3] has as its target GSK3β (Glycogen synthase kinase-3 beta) (Homo sapiens, UniProt P49841). In words: Assay 6 GSK3β assay (ThermoFisher Z-Lyte FRET). The format is biochemical. The settings on record: ATP Conc: 10 μM, geometric mean; read-out: Assay 6 (GSK3β FRET-Z-Lyte Cr) GMean IC50. Here is the method: This assay measures the activity of the compounds at GSK33 (Glycogen synthase kinase-3 beta).
The test compounds were screened in 1% DMSO (final) in the well. For 10 point titrations, 3-fold serial dilutions are conducted from the starting concentration of 10 PM.
Bar-coded Corning, low volume NBS, black 384-well plate • 1. 2.5 μL—4× Test Compound or 100 nL 100× plus 2.4 μL kinase buffer • 2. 5 μL—2× Peptide/Kinase Mixture • 3. 2.5 μL—4×ATP Solution • 4. 30-second plate shake • 5. 60-minute Kinase Reaction incubation at room temperature • 6. 5 μL—Development Reagent Solution • 7. 30-second plate shake • 8. 60-minute Development Reaction incubation at room temperature • 9. Read on fluorescence plate reader and analyse the data
In step 2, the 2×GSK3β (GSK3 beta)/Ser/Thr (Glycogen synthase kinase-3 beta/Serine/Threonine) 09 mixture is prepared in 50 mM HEPES (4-(2-hydroxyethyl)-1-piperazineethanesulfonic acid) pH 7.5, 0.01% BRIJ-35, 10 mM MgCl2, 1 mM EGTA (egtazic acid). The final 10 μL Kinase Reaction consists of 0.22-0.92 ng GSK3β (GSK3 beta) and 2 PM Ser/Thr 09 in 50 mM HEPES pH 7.5, 0.01% BRIJ-35, 10 mM MgCl2, 1 mM EGTA.
In step 3 the ATP Solution is diluted to a 4× working concentration in Kinase Buffer (50 mM HEPES pH 7.5, 0.01% BRIJ-35, 10 mM MgCl2, 1 mM EGTA).
In Step 6 the Development Reagent is diluted 1:512 in Development Buffer (10× Novel PKC Lipid Mix: 2 mg/mL Phosphatidyl Serine, 0.2 mg/mL DAG in 20 mM HEPES, pH 7.4, 0.3% CHAPS).
SelectScreen® Kinase Profiling Service uses XLfit from IDBS. The dose response curve is curve fit to model number 205 (sigmoidal dose-response model).

For test [4], the target named is T1, PCSK9. Nature of the test: Assay 3 PCSK9 LDL-C uptake assay in HepG2 cells. It is filed as cell-based. The arrangement: TEV site (C); His6 (C); host or cells: added to HepG2 (ATCC #HB-8065). The settings on record: 125 nM PCSK9, pHrodo Red-LDL, read-out: Assay 3 LDL uptake potency. The text has this:
This assay measures for PCSK9 antagonist activity based on a test compound's capacity to restore LDL-C-uptake in HepG2 cells. The assay is based on exogenous PCSK9 and LDL-C complexed with a pH-sensitive dye. Outside the cells, at neutral pH, the pHrodo Red-LDL is dimly fluorescent but upon LDLR mediated endocytosis it fluoresces brightly. PCSK9 traffics the LDLR to intracellular degradation and reduces uptake of LDL-C. Inhibition of PCSK9 reduces LDLR degradation and the increased LDL-C uptake is quantified by fluorescence microscopy.
• Cell medium: MEM supplemented with 10% FBS, 1×NEAA and Sodium Pyruvate • Assay medium: OptiMem supplemented with penicillin/streptomycin • Cells: HepG2 (ATCC #HB-8065)
• 1. Cryopreserved HepG2 cells were thawed in assay medium and centrifuged for 5 min at 250 g. Supernatant was discarded and the cell pellet resuspended in cell medium and counted with a Nucleocounter. Cells were again centrifuged 5 min at 250 g and the pellet was resuspended to 500000 cells/mL in assay medium. • 2. 20 μL of above cell mix was dispensed into black μclear TC treated 384 well plates with Multidrop Combi and left at room temperature for 20 minutes. • 3. Plates were incubated at 37° C., 5% CO2 for 24 h
• 1. Test compounds were prepared in concentration response in DMSO with a half-log dilution factor in DMSO in Echo 384 LDV plates starting at 10 mM. • 2. 30 nL of above test compounds were dispensed with Echo 655 to cells for a top concentration of 10 μM • 3. 10 μL PCSK9 in assay medium was dispensed to cells with Multidrop Combi for 125 nM final concentration in the wells. • 4. Plates were incubated at 37° C., 5% CO2 for 24 h
• 1. 10 μL pHrodo Red-LDL in assay medium was dispensed to cells with Multidrop Combi for […] • 2. Plates were incubated at 37° C., 5% CO2 and imaged with the Incucyte S3 after 4 h and 24 h
Image data was processed using Incucyte 2021, a software to identify cells and red fluorescent intensity. Screener was used to further process data. Data was normalized as % effect of the signal between median values of the on-plate controls of DMSO and 100 nM Evolocumab according to the formula % effect=−100*(x−DMSO)/(Evolocumab−DMSO) where x equals the measured signal. Concentration response data of the normalized values were fitted using a four-parameter logistic fit.

15 molecules from patent publication US20240228469A1, “PCSK9 INHIBITORS AND METHODS OF USE THEREOF” (AstraZeneca AB, priority 2022, published 2024) can be followed below.

T2 sequence (Q12809 whole entry): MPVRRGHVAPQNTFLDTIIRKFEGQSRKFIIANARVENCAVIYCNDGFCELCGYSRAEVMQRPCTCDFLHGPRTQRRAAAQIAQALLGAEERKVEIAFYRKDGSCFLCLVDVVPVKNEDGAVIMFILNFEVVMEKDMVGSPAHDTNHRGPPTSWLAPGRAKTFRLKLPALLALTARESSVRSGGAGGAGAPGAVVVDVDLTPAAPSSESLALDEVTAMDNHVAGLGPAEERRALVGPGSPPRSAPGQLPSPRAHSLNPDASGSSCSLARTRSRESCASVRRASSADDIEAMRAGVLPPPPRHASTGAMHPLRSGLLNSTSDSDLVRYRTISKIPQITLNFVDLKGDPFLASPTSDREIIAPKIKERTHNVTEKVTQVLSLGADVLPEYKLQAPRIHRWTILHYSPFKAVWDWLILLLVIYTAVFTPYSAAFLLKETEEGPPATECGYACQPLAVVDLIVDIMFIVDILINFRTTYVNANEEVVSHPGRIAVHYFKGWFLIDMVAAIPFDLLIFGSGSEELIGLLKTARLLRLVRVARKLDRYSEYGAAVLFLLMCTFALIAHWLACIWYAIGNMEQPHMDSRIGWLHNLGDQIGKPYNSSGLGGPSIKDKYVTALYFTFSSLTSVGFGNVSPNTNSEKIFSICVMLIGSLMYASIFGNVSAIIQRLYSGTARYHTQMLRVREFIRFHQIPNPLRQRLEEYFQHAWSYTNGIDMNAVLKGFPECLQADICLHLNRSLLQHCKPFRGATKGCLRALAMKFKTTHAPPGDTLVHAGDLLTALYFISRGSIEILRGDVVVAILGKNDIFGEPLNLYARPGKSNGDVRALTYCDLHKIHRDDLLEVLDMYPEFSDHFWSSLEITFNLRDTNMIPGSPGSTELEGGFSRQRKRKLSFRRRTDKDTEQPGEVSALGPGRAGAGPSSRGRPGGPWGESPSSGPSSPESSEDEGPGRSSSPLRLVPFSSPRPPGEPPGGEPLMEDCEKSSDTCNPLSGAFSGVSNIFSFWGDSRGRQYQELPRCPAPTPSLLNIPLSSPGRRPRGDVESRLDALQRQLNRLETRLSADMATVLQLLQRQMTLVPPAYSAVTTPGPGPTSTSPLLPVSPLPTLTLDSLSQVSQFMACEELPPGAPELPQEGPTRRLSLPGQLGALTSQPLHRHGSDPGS
Sequence of GSK3β (Glycogen synthase kinase-3 beta) (P49841 whole entry): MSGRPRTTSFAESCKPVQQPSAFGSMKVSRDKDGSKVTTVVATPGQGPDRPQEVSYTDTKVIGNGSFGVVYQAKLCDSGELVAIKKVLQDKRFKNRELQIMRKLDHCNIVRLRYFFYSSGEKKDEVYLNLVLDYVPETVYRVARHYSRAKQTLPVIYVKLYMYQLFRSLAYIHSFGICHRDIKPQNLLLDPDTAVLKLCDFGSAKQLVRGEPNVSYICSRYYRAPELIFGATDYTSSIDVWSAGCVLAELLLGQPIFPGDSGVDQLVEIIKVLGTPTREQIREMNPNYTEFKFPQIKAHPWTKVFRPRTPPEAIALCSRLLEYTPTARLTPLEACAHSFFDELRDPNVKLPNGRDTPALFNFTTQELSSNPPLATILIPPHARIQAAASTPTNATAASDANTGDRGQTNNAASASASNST
T1 sequence (Q8NBP7 with tags, fused parts or gaps V474I/G670E): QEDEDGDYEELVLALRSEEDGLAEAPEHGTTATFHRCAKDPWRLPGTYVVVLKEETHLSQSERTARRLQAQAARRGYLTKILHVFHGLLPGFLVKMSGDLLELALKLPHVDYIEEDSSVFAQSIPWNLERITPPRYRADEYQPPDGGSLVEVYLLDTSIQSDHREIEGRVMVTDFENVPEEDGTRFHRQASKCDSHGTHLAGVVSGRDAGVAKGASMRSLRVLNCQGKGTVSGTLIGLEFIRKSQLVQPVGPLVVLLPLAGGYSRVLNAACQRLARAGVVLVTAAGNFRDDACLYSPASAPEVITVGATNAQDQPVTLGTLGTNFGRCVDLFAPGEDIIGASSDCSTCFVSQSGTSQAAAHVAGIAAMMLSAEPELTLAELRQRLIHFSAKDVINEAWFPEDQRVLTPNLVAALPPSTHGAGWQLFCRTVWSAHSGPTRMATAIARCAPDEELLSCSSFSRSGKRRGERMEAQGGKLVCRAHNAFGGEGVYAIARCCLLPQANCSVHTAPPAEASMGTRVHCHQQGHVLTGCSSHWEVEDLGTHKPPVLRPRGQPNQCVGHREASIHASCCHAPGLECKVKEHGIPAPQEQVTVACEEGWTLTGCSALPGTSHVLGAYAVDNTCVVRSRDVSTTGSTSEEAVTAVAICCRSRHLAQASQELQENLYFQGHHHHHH

On to `O=c1cccnn1-c1cnc(N[C@H]2CC[C@H](Nc3ncc(C4CC4)nn3)C2)cn1` [Example 59, 2-(5-(((1S,3S)-3-((6-Cyclopropyl-1,2,4-triazin-3-yl)amino)cyclopentyl)amino)pyrazin-2-yl)pyridazin-3(2H)-one], for which the concentration for half-maximal inhibition (IC50) at PCSK9 [1] is 45 nM; in test [2], above 40 µM; in test [3], above 10 µM.
On the same counts, the results for `O=c1ccncn1-c1cnc(N[C@H]2CC[C@H](Nc3ncc(C4CC4)nn3)C2)nc1` [Example 120, 2′-(((1S,3S)-3-((6-Cyclopropyl-1,2,4-triazin-3-yl)amino)cyclopentyl)amino)-6H-[1,5′-bipyrimidin]-6-one] are 143 nM, above 40.1 µM and above 10 µM.
With `O=c1ccccn1-c1ccc(N[C@H]2CC[C@H](Nc3ncc(Cl)nn3)C2)nc1` [Example 255, 6′-(((1S,3S)-3-((6-Chloro-1,2,4-triazin-3-yl)amino)cyclopentyl)amino)-2H-[1,3′-bipyridin]-2-one], the IC50 against PCSK9 [1] was 78 nM; in test [2], above 40.1 µM; in test [3] it was 5.33 µM.
For `COc1cccc(OC)c1-c1ccc(N[C@H]2CC[C@H](Nc3ncc(C)nn3)C2)nc1` [Example 307, (1S,3S)—N^1-(5-(2,6-Dimethoxyphenyl)pyridin-2-yl)-N^3-(6-methyl-1,2,4-triazin-3-yl)cyclopentane-1,3-diamine] the same measures were 1660 nM, 23.3 µM and above 10 µM.
On the same counts, the results for `Cc1cnc(N[C@H]2CC[C@H](Nc3ccc(-n4nc(Cl)ccc4=O)cn3)C2)nn1` [Example 222] are 8.3 nM, above 40.1 µM and above 10 µM.
Regarding `Cc1cnc(N[C@H]2CC[C@H](Nc3ccc(-n4nccc(C#N)c4=O)cn3)C2)nn1` [Example 277, 2-(6-(((1S,3S)-3-((6-Methyl-1,2,4-triazin-3-yl)amino)cyclopentyl)amino)pyridin-3-yl)-3-oxo-2,3-dihydropyridazine-4-carbonitrile], the half-inhibitory concentration (IC50) against PCSK9 [1] is 4.9 nM; in test [2] it was above 40.1 µM; in test [3], 9.56 µM.
On to `Cc1cnc(N[C@H]2CC[C@H](Nc3ccc(-c4ccccn4)cn3)C2)nn1` [Example 309, (1S,3S)—N′-([2,3′-Bipyridin]-6′-yl)-N^3-(6-methyl-1,2,4-triazin-3-yl)cyclopentane-1,3-diamine], for which the results for the half-inhibitory concentration (IC50) (at PCSK9 [1]; in test [2]; in test [3]) were 534 nM, 11.4 µM and above 10 µM, respectively.
For `Cc1cnc(NCC(CCO)CNc2ccc(-n3cccc(C)c3=O)cn2)nn1` (racemic) [Example 315, rac-6′-((4-Hydroxy-2-(((6-methyl-1,2,4-triazin-3-yl)amino)methyl)butyl)amino)-3-methyl-2H-[1,3′-bipyridin]-2-one] the same measures were 1290 nM, above 40.1 µM and above 10 µM.
On the same counts, the results for `Cc1cnc(N[C@H]2CC[C@H](Nc3ccc(-n4nc(C)nc4C)cn3)C2)nn1` [Example 313, (1S,3S)—N^1-(5-(3,5-dimethyl-1H-1,2,4-triazol-1-yl)pyridin-2-yl)-N^3-(6-methyl-1,2,4-triazin-3-yl)cyclopentane-1,3-diamine] are 16 nM, above 40.1 µM and above 10 µM.
On the same counts, the results for `Cn1cccc(-c2cnc(N[C@H]3CC[C@H](Nc4ncc(C5CC5)nn4)C3)nc2)c1=O` [Example 115, 3-(2-(((1S,3S)-3-((6-Cyclopropyl-1,2,4-triazin-3-yl)amino)cyclopentyl)amino)pyrimidin-5-yl)-1-methylpyridin-2(1H)-one] are 17 nM, above 40 µM and above 10 µM.
In the case of `CN(C)c1cnc(N[C@H]2CC[C@H](Nc3ccc(-n4ccccc4=O)cn3)C2)nn1` [Example 256, 6′-(((1S,3S)-3-((6-(Dimethylamino)-1,2,4-triazin-3-yl)amino)cyclopentyl)amino)-2H-[1,3′-bipyridin]-2-one], the IC50 on PCSK9 [1] is 119 nM; in test [2], above 40.1 µM; in test [3], 1.68 µM.
For `CC(=O)c1cnc(N[C@H]2CC[C@H](Nc3ccc(-n4ccccc4=O)cn3)C2)nn1` [Example 260, 6′-(((1S,3S)-3-((6-Acetyl-1,2,4-triazin-3-yl)amino)cyclopentyl)amino)-2H-[1,3′-bipyridin]-2-one] the same measures were 101 nM, above 40 µM and 1.32 µM.
For `Cc1cnc(N[C@H]2CC[C@H](Nc3ccc(-c4nc(C)oc4C)cn3)C2)nn1` [Example 314, (1S,3S)—N^1-(5-(2,5-Dimethyloxazol-4-yl)pyridin-2-yl)-N^3-(6-methyl-1,2,4-triazin-3-yl)cyclopentane-1,3-diamine] the same measures were 110 nM, 25.7 µM and above 10 µM.
As for `COc1ccc(=O)n(-c2ccc(NCC(CCO)CNc3ncc(C)nn3)nc2)c1` (racemic) [Example 317, rac-6′-((4-Hydroxy-2-(((6-methyl-1,2,4-triazin-3-yl)amino)methyl)butyl)amino)-5-methoxy-2H-[1,3′-bipyridin]-2-one], the values for the IC50 (against PCSK9 [1]; in test [2]) were 4430 nM and above 40 µM, respectively. Also, on PCSK9 [4], the EC50 is above 800 nM.
As for `CCOC(=O)c1cnc(N[C@H]2CC[C@H](Nc3ccc(-n4ccccc4=O)cn3)C2)nn1` [Compound 10, Ethyl 3-(((1S,3S)-3-((2-oxo-2H-[1,3′-bipyridin]-6′-yl)amino)cyclopentyl)amino)-1,2,4-triazine-6-carboxylate], the IC50 was 797 nM against PCSK9 [1], above 40 µM in test [2] and above 10 µM in test [3].
